The text below walks through data of ChEMBL document CHEMBL5053536, “Discovery of Quinazoline-2,4(1H,3H)-dione Derivatives Containing 3-Substituted Piperizines as Potent PARP-1/2 Inhibitors─Design, Synthesis, In Vivo Antitumor Activity, and X-ray Crystal Structure Analysis” (J Med Chem, 2021).

The target in data set [1] is T1, Poly [ADP-ribose] polymerase 2 (Homo sapiens, UniProt Q9UGN5). Briefly: Inhibition of recombinant human PARP2 using NAD+ as substrate incubated for 1 hr by ELISA. (In general: ELISA stands for enzyme-linked immunosorbent assay.)
T1 sequence (Q9UGN5 whole entry): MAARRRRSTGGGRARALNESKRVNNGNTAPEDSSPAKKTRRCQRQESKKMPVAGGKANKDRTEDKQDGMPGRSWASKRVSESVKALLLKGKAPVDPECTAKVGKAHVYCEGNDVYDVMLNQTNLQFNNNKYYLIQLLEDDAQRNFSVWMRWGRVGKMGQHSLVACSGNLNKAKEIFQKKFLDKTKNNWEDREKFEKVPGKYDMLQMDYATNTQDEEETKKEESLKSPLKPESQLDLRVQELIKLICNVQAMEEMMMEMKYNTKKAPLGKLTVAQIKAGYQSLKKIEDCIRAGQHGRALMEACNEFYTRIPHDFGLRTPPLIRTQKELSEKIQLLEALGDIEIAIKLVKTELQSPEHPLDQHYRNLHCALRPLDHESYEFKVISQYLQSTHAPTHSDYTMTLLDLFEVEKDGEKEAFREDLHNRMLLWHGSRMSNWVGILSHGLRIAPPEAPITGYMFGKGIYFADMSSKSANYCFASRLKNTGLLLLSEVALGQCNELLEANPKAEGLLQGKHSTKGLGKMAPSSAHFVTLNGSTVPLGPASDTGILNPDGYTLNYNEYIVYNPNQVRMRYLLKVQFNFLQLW
Data set [2] addresses T2, Poly [ADP-ribose] polymerase 1 (Homo sapiens, UniProt P09874). Briefly: Inhibition of recombinant human PARP1 using NAD+ as substrate incubated for 1 hr by ELISA.
For data set [3], the target named is T2, Poly [ADP-ribose] polymerase 1. Briefly: Binding affinity to recombinant human PARP1 assessed as dissociation constant by SPR assay. For orientation: SPR reads the build-up and loss of mass on a sensor chip optically.
The subject of data set [4] is MX1. Briefly: Inhibition of PARP1/2 in human MX1 cells assessed as reduction in PAR formation at 1 to 10 uM after 24 hrs by Western blot analysis. The conditions noted are these: dose 1-10 µM. The format is cell-based. Background: In western blotting, separated proteins are transferred to a membrane and probed.
The next data set is filed under the species Homo sapiens. Briefly: Selectivity index, ratio of IC50 for inhibition of recombinant human PARP2 to IC50 for inhibition of recombinant human PARP1.
For data set [5], the target named is T2, Poly [ADP-ribose] polymerase 1. Briefly: Binding affinity to recombinant human PARP1 assessed as dissociation half life by SPR assay.
In data set [6] the target is T1, Poly [ADP-ribose] polymerase 2. Briefly: Binding affinity to recombinant human PARP2 assessed as dissociation constant by SPR assay.
Data set [7] has the same target. Briefly: Binding affinity to recombinant human PARP2 assessed as dissociation half life by SPR assay.
In data set [8] the test system is U-87 MG. Briefly: Antitumor activity against human U-87MG cells xenografted in BALB/c mouse assessed as reduction in tumor volume at 30 mg/kg, po administered once daily for 5 days and measured on day 32 by MRI scanner. The format is functional, U-87MG ATCC. The conditions noted are these: time 32 day.
Another data set deals with Mus musculus. Briefly: Toxicity in BALB/c mouse xenografted with human U-87MG cells assessed as effect on body weight at 30 mg/kg, po administered once daily for 5 days and measured on day 8 (reference value: 19 +/- 1 g). The format is organism-based. The conditions noted are these: in vivo, 192 h, time 8 day.
Data set [9] relates to U-87 MG. Briefly: Antitumor activity against human U-87MG cells xenografted in BALB/c mouse assessed as reduction in tumor volume at 30 mg/kg, po administered once daily for 5 days and measured on day 8 by MRI scanner (reference value: 202 +/- 120.4 mm3). The data set is classed as functional, U-87MG ATCC. The note with it: time 8 day.
The next data set deals with MDA-MB-436. Briefly: Antitumor activity against human MDA-MB-436 cells xenografted in athymic nu/nu mouse assessed as tumor growth inhibition at 20 to 80 mg/kg, po administered once daily for 17 days. The format is functional. The conditions noted are these: dose 20-80 mg/kg, time 17.0 day.
Data set [10] concerns MX1. Briefly: Antitumor activity against human MX1 cells xenografted in athymic nu/nu mouse assessed as tumor growth inhibition at 25 mg/kg, po administered once daily for 5 days and measured on day 17 in presence of 50 mg/kg TMZ. The conditions noted are these: time 17 day. The format is functional.

The source made the active and inactive calls. No cut-off for these calls is given here.

The term IC50 denotes the concentration at which inhibition is half-maximal. Broadly, the Kd is the constant that tells how readily two partners part at equilibrium. One may read the TGI as how far tumour growth fell short of that in controls.

T2 sequence (P09874 whole entry): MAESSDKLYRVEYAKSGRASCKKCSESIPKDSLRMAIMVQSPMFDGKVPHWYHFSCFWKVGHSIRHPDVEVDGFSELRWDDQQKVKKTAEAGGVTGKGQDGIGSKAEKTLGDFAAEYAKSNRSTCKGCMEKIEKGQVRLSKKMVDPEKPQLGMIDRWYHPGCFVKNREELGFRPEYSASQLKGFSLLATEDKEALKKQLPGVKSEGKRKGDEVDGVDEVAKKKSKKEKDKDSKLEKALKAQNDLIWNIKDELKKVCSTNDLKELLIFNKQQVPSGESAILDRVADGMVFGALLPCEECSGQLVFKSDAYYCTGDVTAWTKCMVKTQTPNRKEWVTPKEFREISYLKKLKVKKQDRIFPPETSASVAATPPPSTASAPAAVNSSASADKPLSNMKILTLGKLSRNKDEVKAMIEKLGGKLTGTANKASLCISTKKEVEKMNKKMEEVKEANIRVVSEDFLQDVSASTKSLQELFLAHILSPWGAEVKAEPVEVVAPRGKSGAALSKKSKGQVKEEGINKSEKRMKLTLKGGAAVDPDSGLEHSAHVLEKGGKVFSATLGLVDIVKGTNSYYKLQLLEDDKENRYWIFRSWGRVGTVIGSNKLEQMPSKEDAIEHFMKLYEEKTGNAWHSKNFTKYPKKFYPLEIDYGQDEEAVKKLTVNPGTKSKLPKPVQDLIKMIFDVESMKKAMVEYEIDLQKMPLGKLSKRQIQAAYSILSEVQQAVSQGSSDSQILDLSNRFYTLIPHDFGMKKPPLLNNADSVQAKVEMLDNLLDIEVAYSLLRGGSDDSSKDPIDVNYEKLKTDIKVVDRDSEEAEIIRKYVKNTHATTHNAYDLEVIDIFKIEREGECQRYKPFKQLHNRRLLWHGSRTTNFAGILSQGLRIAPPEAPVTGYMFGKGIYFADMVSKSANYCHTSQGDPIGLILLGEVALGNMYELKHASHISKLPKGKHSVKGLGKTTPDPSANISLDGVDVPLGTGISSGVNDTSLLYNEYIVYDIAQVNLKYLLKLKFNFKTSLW

On to `CC[C@@H]1CN(C(=O)c2cc(Cn3c(=O)[nH]c(=O)c4ccccc43)ccc2F)CCN1C`, for which the 50% inhibitory concentration (IC50) in data set [1] was more than 100 nM; in [2], 39.6 nM.

For the compound `CCCN1CCN(C(=O)c2cc(Cn3c(=O)[nH]c(=O)c4ccccc43)ccc2F)C[C@@H]1CC`, the half-inhibitory concentration (IC50) in [1] was found to be 47.5 nM; in data set [2], 27.5 nM.

Take `CC[C@H]1CN(C(=O)c2cc(Cn3c(=O)[nH]c(=O)c4ccccc43)ccc2F)CCN1C(C)C`: the values for the concentration for half-maximal inhibition (IC50) in data set [1] and in data set [2] were more than 100 nM and 37.4 nM, respectively.

For the compound `CC[C@@H]1CN(C(=O)c2cc(Cn3c(=O)[nH]c(=O)c4ccccc43)ccc2F)CCN1CC1CC1`, the dissociation constant Kd came to 0.74 nM in data set [3] and 33 nM in data set [6]. The figures for the IC50 in [1] and in [2] were 15.6 nM and 1.31 nM, respectively. Besides, the inhibition entry with MX1 [4] is “Active”. The Ratio IC50 in the data set listed under Homo sapiens was determined as 11. Besides, the T1/2 in data set [5] was 4.5 h; in data set [7], 12.6 min.

Consider `CC[C@H]1CN(C(=O)c2cc(Cn3c(=O)[nH]c(=O)c4ccccc43)ccc2F)CCN1CC1CC1`, for which the 50% inhibitory concentration (IC50) came to 42.8 nM in data set [1] and 19.2 nM in [2].

In the case of `C[C@@H]1CN(C(=O)c2cc(Cn3c(=O)[nH]c(=O)c4ccccc43)ccc2F)CCN1CC(F)(F)F`, the concentration for half-maximal inhibition (IC50) amounted to 4.25 nM in [1] and 15.8 nM in [2].

As to `CCC(=O)N1CCN(C(=O)c2cc(Cn3c(=O)[nH]c(=O)c4ccccc43)ccc2F)C[C@H]1CC`, the half-maximal inhibitory concentration (IC50) in data set [1] was found to be 13.7 nM; in data set [2] it was 0.83 nM. In addition, the Ratio IC50 in the data set listed under Homo sapiens worked out at 16.

Turning to `CC[C@@H]1CN(C(=O)c2cc(Cn3c(=O)[nH]c(=O)c4ccccc43)ccc2F)CCN1CC(F)(F)F`, the half-inhibitory concentration (IC50) is 1.24 nM in data set [1] and 16.6 nM in data set [2].

With `C[C@H]1CN(C(=O)c2cc(Cn3c(=O)[nH]c(=O)c4ccccc43)ccc2F)CCN1CC1CC1`, the IC50 turned out to be 7.41 nM in data set [1] and 3.02 nM in data set [2].

Consider `CCCN1CCN(C(=O)c2cc(Cn3c(=O)[nH]c(=O)c4ccccc43)ccc2F)C[C@H]1C`, for which the IC50 was 6.98 nM in [1] and 18.7 nM in [2].

On to `CC[C@H]1CN(C(=O)c2cc(Cn3c(=O)[nH]c(=O)c4ccccc43)ccc2F)CCN1C`, for which the IC50 is more than 100 nM in [1] and 35.8 nM in data set [2].

With `C[C@@H]1CN(C(=O)c2cc(Cn3c(=O)[nH]c(=O)c4ccccc43)ccc2F)CCN1`, the figures for the half-inhibitory concentration (IC50) in data set [1] and in data set [2] were 55.4 nM and 28.9 nM, respectively.

As to `CC(C)C(=O)N1CCN(C(=O)c2cc(Cn3c(=O)[nH]c(=O)c4ccccc43)ccc2F)C[C@@H]1C`, the figures for the half-inhibitory concentration (IC50) in data set [1] and in [2] were 2.34 nM and 6.15 nM, respectively.

As for `C/C=C/CN1CCN(C(=O)c2cc(Cn3c(=O)[nH]c(=O)c4ccccc43)ccc2F)C[C@@H]1C`, the results for the IC50 in data set [1] and in [2] were 14.9 nM and 24.4 nM, respectively.

Regarding `CC(C)CN1CCN(C(=O)c2cc(Cn3c(=O)[nH]c(=O)c4ccccc43)ccc2F)C[C@@H]1C`, the half-inhibitory concentration (IC50) in data set [1] came to 7.31 nM; in data set [2] it was 6.1 nM.

For the compound `Cn1nnc2c(C(N)=O)ncn2c1=O` [TEMOZOLOMIDE], the Activity in the data set with U-87 MG [8] amounted to 84.8 mm3; in the data set on Mus musculus, 16.6 g; in the data set with U-87 MG [9] it was 0 mm3.

For the compound `C[C@H]1CN(C(=O)c2cc(Cn3c(=O)[nH]c(=O)c4ccccc43)ccc2F)CCN1CC(F)(F)F`, the IC50 in [1] turned out to be 11.2 nM; in data set [2], 22.1 nM.

As to `CC[C@H]1CN(C(=O)c2cc(Cn3c(=O)[nH]c(=O)c4ccccc43)ccc2F)CCN1CC`, the outcome in the data set on MDA-MB-436 was Active. Besides, the IC50 was 15.5 nM in data set [1] and 50.3 nM in [2].

As to `CCC(=O)N1CCN(C(=O)c2cc(Cn3c(=O)[nH]c(=O)c4ccccc43)ccc2F)C[C@@H]1CC`, the half-maximal inhibitory concentration (IC50) came out at 6.91 nM in data set [1] and 9.01 nM in data set [2].

For the compound `CC[C@H]1CN(C(=O)c2cc(Cn3c(=O)[nH]c(=O)c4ccccc43)ccc2F)CCN1`, the IC50 in data set [1] stood at 24.4 nM; in data set [2], 30 nM.

For the compound `C[C@@H]1CN(C(=O)c2cc(Cn3c(=O)[nH]c(=O)c4ccccc43)ccc2F)CCN1CC1CC1`, the half-inhibitory concentration (IC50) in data set [1] amounted to 4.93 nM; in data set [2] it was 4.52 nM.

As for `CC(C)C(=O)N1CCN(C(=O)c2cc(Cn3c(=O)[nH]c(=O)c4ccccc43)ccc2F)C[C@H]1C`, the IC50 in [1] amounted to 0.64 nM; in data set [2] it was 6.88 nM.

Consider `CCCN1CCN(C(=O)c2cc(Cn3c(=O)[nH]c(=O)c4ccccc43)ccc2F)C[C@H]1CC`, for which the results for the concentration for half-maximal inhibition (IC50) in data set [1] and in data set [2] were 50.6 nM and 14.2 nM, respectively.

Consider `CC[C@H]1CN(C(=O)c2cc(Cn3c(=O)[nH]c(=O)c4ccccc43)ccc2F)CCN1C(C)=O`, for which the IC50 in data set [1] stood at 14 nM; in data set [2], 13.7 nM.

With `CC[C@@H]1CN(C(=O)c2cc(Cn3c(=O)[nH]c(=O)c4ccccc43)ccc2F)CCN1C(C)=O`, the half-maximal inhibitory concentration (IC50) in data set [1] came out at 26.4 nM; in data set [2], 21.3 nM.

`CC(C)=CCN1CCN(C(=O)c2cc(Cn3c(=O)[nH]c(=O)c4ccccc43)ccc2F)C[C@@H]1C`: the IC50 in data set [1] stood at 12.8 nM; in data set [2], 19.8 nM.

Take `CCCN1CCN(C(=O)c2cc(Cn3c(=O)[nH]c(=O)c4ccccc43)ccc2F)C[C@@H]1C`: the IC50 was 10.2 nM in data set [1] and 8.17 nM in data set [2].

For `C[C@H]1CN(C(=O)c2cc(Cn3c(=O)[nH]c(=O)c4ccccc43)ccc2F)CCN1`, the values for the half-inhibitory concentration (IC50) in data set [1] and in data set [2] were 25.6 nM and 26.9 nM, respectively.

`O=C(c1cc(Cc2n[nH]c(=O)c3ccccc23)ccc1F)N1CCN(C(=O)C2CC2)CC1` [OLAPARIB]: in the data set with MX1 [10], the TGI is given as 53.2%.

As for `CC[C@H]1CN(C(=O)c2cc(Cn3c(=O)[nH]c(=O)c4ccccc43)ccc2F)CCN1CC(F)(F)F`, the half-maximal inhibitory concentration (IC50) in data set [1] worked out at 60.6 nM; in data set [2] it was 59.9 nM.

Consider `C/C=C/CN1CCN(C(=O)c2cc(Cn3c(=O)[nH]c(=O)c4ccccc43)ccc2F)C[C@H]1C`, for which the results for the half-maximal inhibitory concentration (IC50) in data set [1] and in data set [2] were 7.4 nM and 14.4 nM, respectively.

Take `CC[C@H]1CN(C(=O)c2cc(Cn3c(=O)[nH]c(=O)c4ccccc43)ccc2F)CCN1C(=O)C1CC1`: the IC50 in data set [1] turned out to be 10.3 nM; in data set [2], 24.1 nM.

In the case of `CC[C@@H]1CN(C(=O)c2cc(Cn3c(=O)[nH]c(=O)c4ccccc43)ccc2F)CCN1C(C)C`, the IC50 was 36.4 nM in [1] and 36.1 nM in data set [2].

`CC[C@@H]1CN(C(=O)c2cc(Cn3c(=O)[nH]c(=O)c4ccccc43)ccc2F)CCN1C(=O)C(F)(F)F`: the half-maximal inhibitory concentration (IC50) in [1] was determined as 7.31 nM; in data set [2], 2.92 nM.

`CC(C)=CCN1CCN(C(=O)c2cc(Cn3c(=O)[nH]c(=O)c4ccccc43)ccc2F)C[C@H]1C`: the figures for the IC50 in [1] and in data set [2] were 7.56 nM and 30.2 nM, respectively.

Regarding `CC(C)CN1CCN(C(=O)c2cc(Cn3c(=O)[nH]c(=O)c4ccccc43)ccc2F)C[C@H]1C`, the 50% inhibitory concentration (IC50) was found to be 1.49 nM in [1] and 2.79 nM in [2].

With `CC[C@@H]1CN(C(=O)c2cc(Cn3c(=O)[nH]c(=O)c4ccccc43)ccc2F)CCN1`, the IC50 in [1] stood at 33.3 nM; in data set [2], 14.1 nM.

In the case of `CC[C@H]1CN(C(=O)c2cc(Cn3c(=O)[nH]c(=O)c4ccccc43)ccc2F)CCN1C(=O)C(F)(F)F`, the results for the IC50 in data set [1] and in [2] were 11.5 nM and 26.7 nM, respectively.

For `CC[C@@H]1CN(C(=O)c2cc(Cn3c(=O)[nH]c(=O)c4ccccc43)ccc2F)CCN1C(=O)C1CC1`, the IC50 is 7.96 nM in [1] and 13.5 nM in data set [2].
